Data reported in ChEMBL document CHEMBL5614413, “Design, synthesis and biological evaluation of amphiphilic benzopyran derivatives as potent antibacterial agents against multidrug-resistant bacteria” (Eur J Med Chem, 2024).
In brackets after ≈: the same amount, converted by molar mass.

Experiments:
[1] = Selectivity index, ratio of HC50 for hemolytic activity in sheep RBC to MIC for antibacterial activity against methicillin-resistant Staphylococcus aureus ATCC 43300; type: toxicity; details: sheep red blood cells (erythrocytes), read-out: Selectivity Index
Acinetobacter baumannii = test: Antibacterial activity against Acinetobacter baumannii ATCC 19606; type: functional
Bacillus subtilis = test: Antibacterial activity against penicillin-susceptible Bacillus subtilis ATCC 9372; type: functional
Klebsiella pneumoniae = test: Antibacterial activity against Klebsiella pneumoniae ATCC 10031; type: functional
Pseudomonas aeruginosa = test: Antibacterial activity against penicillin-susceptible Pseudomonas aeruginosa ATCC 27853; type: functional
[2] = tested on: Staphylococcus epidermidis; test: Antibacterial activity erythromycin-susceptible Staphylococcus epidermidis ATCC 12228; type: functional
Staphylococcus aureus [3] = test: Antibacterial activity against penicillin-resistant Staphylococcus aureus ATCC 31007; type: functional
Staphylococcus aureus [4] = test: Antibacterial activity against methicillin-resistant Staphylococcus aureus ATCC 43300; type: functional
Staphylococcus aureus [5] = test: Antibacterial activity against erythromycin-susceptible Staphylococcus aureus ATCC 25923; type: functional
Escherichia coli = test: Antibacterial activity against penicillin-susceptible Escherichia coli ATCC 25922; type: functional
[6] = Hemolytic activity in sheep RBC; type: toxicity, cell-based, Ovis aries, Erythrocyte; details: sheep red blood cells (erythrocytes)
Enterococcus faecalis = test: Antibacterial activity against vancomycin-susceptible Enterococcus faecalis ATCC 29212; type: functional

| SMILES | selectivity ratio [1] | MIC (Acinetobacter baumannii) | MIC (Bacillus subtilis) | MIC (Klebsiella pneumoniae) | MIC (Pseudomonas aeruginosa) | MIC [2] | MIC (Staphylococcus aureus [3]) | MIC (Staphylococcus aureus [4]) | MIC (Staphylococcus aureus [5]) | MIC (Escherichia coli) | HC50 [6] | MIC (Enterococcus faecalis) |
| --- | --- | --- | --- | --- | --- | --- | --- | --- | --- | --- | --- | --- |
| CNCCCOc1ccc(/C=C/C(=O)c2ccc3c(c2OC)C=CC(C)(CCC=C(C)C)O3)cc1 (centres undefined) | 5.6 | > 128 µg/mL | 4 µg/mL (≈ 8.41 µM) | 32 µg/mL (≈ 67.3 µM) | > 128 µg/mL | 1 µg/mL (≈ 2.1 µM) | 8 µg/mL (≈ 16.8 µM) | 16 µg/mL (≈ 33.6 µM) | 8 µg/mL (≈ 16.8 µM) | > 128 µg/mL | 90.5 µg/mL | 4 µg/mL (≈ 8.41 µM) |
| CC(=O)c1c(OCCCNCCN(C)C)c2c(c3c1OC(C)(CCC=C(C)C)C=C3)OC(C)(CCC=C(C)C)C=C2 (centres undefined) | 22.6 | 2 µg/mL (≈ 3.54 µM) | 2 µg/mL (≈ 3.54 µM) | 4 µg/mL (≈ 7.08 µM) | 32 µg/mL (≈ 56.7 µM) | 0.5 µg/mL (≈ 0.885 µM) | 2 µg/mL (≈ 3.54 µM) | 2 µg/mL (≈ 3.54 µM) | 1 µg/mL (≈ 1.77 µM) | 2 µg/mL (≈ 3.54 µM) | 45.2 µg/mL | 1 µg/mL (≈ 1.77 µM) |
| CC(=O)c1ccc2c(c1OCCCN1CCSCC1)C=CC(C)(CCC=C(C)C)O2 (centres undefined) | < 10 | 128 µg/mL (≈ 298 µM) | > 128 µg/mL | > 128 µg/mL | > 128 µg/mL | > 128 µg/mL | > 128 µg/mL | > 128 µg/mL | > 128 µg/mL | > 128 µg/mL | > 1280 µg/mL | > 128 µg/mL |
| CC(=O)c1c(OCCCN2CCOCC2)c2c(c3c1OC(C)(CCC=C(C)C)C=C3)OC(C)(CCC=C(C)C)C=C2 (centres undefined) | < 10 | > 128 µg/mL | > 128 µg/mL | > 128 µg/mL | > 128 µg/mL | > 128 µg/mL | > 128 µg/mL | > 128 µg/mL | > 128 µg/mL | > 128 µg/mL | > 128 µg/mL | > 128 µg/mL |
| CC(=O)c1ccc2c(c1OCC(=O)NCCCN1CCCC1)C=CC(C)(CCC=C(C)C)O2 (centres undefined) | 5.2 | 128 µg/mL (≈ 282 µM) | 64 µg/mL (≈ 141 µM) | 64 µg/mL (≈ 141 µM) | > 128 µg/mL | 64 µg/mL (≈ 141 µM) | 32 µg/mL (≈ 70.4 µM) | 32 µg/mL (≈ 70.4 µM) | 32 µg/mL (≈ 70.4 µM) | > 128 µg/mL | 167 µg/mL | 64 µg/mL (≈ 141 µM) |
| CC(=O)c1ccc2c(c1OCC(=O)NCCN(C)C)C=CC(C)(CCC=C(C)C)O2 (centres undefined) | 4.9 | 64 µg/mL (≈ 154 µM) | 64 µg/mL (≈ 154 µM) | 32 µg/mL (≈ 77.2 µM) | 128 µg/mL (≈ 309 µM) | 64 µg/mL (≈ 154 µM) | 128 µg/mL (≈ 309 µM) | 128 µg/mL (≈ 309 µM) | 64 µg/mL (≈ 154 µM) | 128 µg/mL (≈ 309 µM) | 316 µg/mL | 64 µg/mL (≈ 154 µM) |
| CC(=O)c1ccc2c(c1OCC(=O)NCCCN1CCN(C)CC1)C=CC(C)(CCC=C(C)C)O2 (centres undefined) | 1.7 | 128 µg/mL (≈ 265 µM) | > 128 µg/mL | 128 µg/mL (≈ 265 µM) | > 128 µg/mL | 128 µg/mL (≈ 265 µM) | 128 µg/mL (≈ 265 µM) | 128 µg/mL (≈ 265 µM) | 128 µg/mL (≈ 265 µM) | > 128 µg/mL | 220 µg/mL | 128 µg/mL (≈ 265 µM) |
| CC(=O)c1ccc2c(c1OCCCN(CCCN(C)C)CCCN(C)C)C=CC(C)(CCC=C(C)C)O2 (centres undefined) | 5.1 | 16 µg/mL (≈ 31.1 µM) | 32 µg/mL (≈ 62.3 µM) | 16 µg/mL (≈ 31.1 µM) | 64 µg/mL (≈ 125 µM) | 32 µg/mL (≈ 62.3 µM) | 64 µg/mL (≈ 125 µM) | 32 µg/mL (≈ 62.3 µM) | 64 µg/mL (≈ 125 µM) | 16 µg/mL (≈ 31.1 µM) | 325 µg/mL | 64 µg/mL (≈ 125 µM) |
| CCN(CC)CCCNCCCOc1c(C(C)=O)ccc2c1C=CC(C)(CCC=C(C)C)O2 (centres undefined) | 17.5 | 8 µg/mL (≈ 17.5 µM) | 8 µg/mL (≈ 17.5 µM) | 8 µg/mL (≈ 17.5 µM) | 16 µg/mL (≈ 35 µM) | 8 µg/mL (≈ 17.5 µM) | 16 µg/mL (≈ 35 µM) | 8 µg/mL (≈ 17.5 µM) | 8 µg/mL (≈ 17.5 µM) | 8 µg/mL (≈ 17.5 µM) | 140 µg/mL | 8 µg/mL (≈ 17.5 µM) |
| CC(=O)c1ccc2c(c1OCCCN(C)CCCN(C)C)C=CC(C)(CCC=C(C)C)O2 (centres undefined) | 10 | 8 µg/mL (≈ 18.1 µM) | 16 µg/mL (≈ 36.1 µM) | 8 µg/mL (≈ 18.1 µM) | 32 µg/mL (≈ 72.3 µM) | 16 µg/mL (≈ 36.1 µM) | 32 µg/mL (≈ 72.3 µM) | 16 µg/mL (≈ 36.1 µM) | 16 µg/mL (≈ 36.1 µM) | 8 µg/mL (≈ 18.1 µM) | 160 µg/mL | 16 µg/mL (≈ 36.1 µM) |
| CC(=O)c1ccc2c(c1OCCCNCCCN1CCN(C)CC1)C=CC(C)(CCC=C(C)C)O2 (centres undefined) | 10.5 | 16 µg/mL (≈ 33.1 µM) | 16 µg/mL (≈ 33.1 µM) | 16 µg/mL (≈ 33.1 µM) | 32 µg/mL (≈ 66.2 µM) | 8 µg/mL (≈ 16.5 µM) | 16 µg/mL (≈ 33.1 µM) | 16 µg/mL (≈ 33.1 µM) | 16 µg/mL (≈ 33.1 µM) | 16 µg/mL (≈ 33.1 µM) | 168 µg/mL | 16 µg/mL (≈ 33.1 µM) |
| COc1c(C(=O)/C=C/c2ccc(OCCCNCCN(C)C)cc2)ccc2c1C=CC(C)(CCC=C(C)C)O2 (centres undefined) | 67.6 | 8 µg/mL (≈ 15 µM) | 2 µg/mL (≈ 3.75 µM) | 16 µg/mL (≈ 30 µM) | 128 µg/mL (≈ 240 µM) | 2 µg/mL (≈ 3.75 µM) | 4 µg/mL (≈ 7.51 µM) | 4 µg/mL (≈ 7.51 µM) | 8 µg/mL (≈ 15 µM) | 4 µg/mL (≈ 7.51 µM) | 270 µg/mL | 2 µg/mL (≈ 3.75 µM) |
